Test results reported in patent publication US20120040956A1, “INHIBITORS OF HIF-1 PROTEIN ACCUMULATION” (INTERMED DISCOVERY GMBH, priority 2008, published 2012).

Columns and labels:
[1] = system: cell-free protein translation (BMV mRNA, ribosomes); experiment: Cell-free protein translation of Brome mosaic virus (BMV) mRNA with ribosomes; type: biochemical; conditions: for effect on in vitro protein translation: relevant (nM) concentrations, SDS-PAGE
Description: The effect of IMD-019064 on cell-free protein translation in vitro was investigated (see also assay principle in FIG. 8). Brome mosaic virus (BMV) mRNA encoding for 4 different viral proteins was incubated with ribosomes in the presence and absence of IMD-019064 (FIG. 9a), IMD-026259, IMD-026260 (FIG. 9b), or cycloheximide (Chx, 10 μM) (positive control) and the formed proteins analyzed by SDS-PAGE.
Panels show representative SDS-PAGE protein gels. Vehicle-containing translation reactions (Veh) represent 100% translation efficacy, while Cycloheximide (Chx; 10 μg/ml) a known inhibitor of protein translation that was used as a positive control does show significant protein reduction.

[2] = system: IKKy/NEMO; experiment: Cellular protein translation in 293T cells (anti-IKKy/NEMO immunoblotting); type: cell-based, human; conditions: 10 h and 24 h; for anti-IKKy/NEMO signal (cellular protein translation): 100 nM
Description: 293T cells were grown in the presence of the known translation inhibitor cycloheximide (10 μg/ml) and 100 nM of IMD-019064, IMD-026259 and IMD-026260 respectively. […] Cells were harvested after 10 h and 24 h and cell lysates were produced. Equal amounts of protein contained in the cell lysates were used for immunoblotting with anti-IKKy/NEMO antibodies as shown in FIG. 12. IKKy/NEMO is a constitutively expressed relatively labile protein. Thus successful inhibition of cellular protein translation should result in significant decline of anti-IKKy/NEMO signal.

[3] = system: HIF-1; experiment: HIF-1-dependent luciferase reporter gene activity in 293T cells under hypoxia; type: cell-based, human; conditions: for time-dependency of inhibition of HIF-1-dependent luciferase expression: 250 nM, added 4 hours after induction of hypoxia (8 h, 1% O2)
Description: A HIF-1-dependent luciferase reporter gene was transfected into 293T cells by transfection with Rotifect™ (Trademarked by Carl Roth GmbH; Karlsruhe, Germany) or alternatively into Jurkat T cells by electroporation. Both cell lines were transfected with a HIF-1-dependent reporter gene. The next day, cells were preincubated for 1 h with the indicated, submicromolar concentrations of the test compounds and then incubated for further 8 h under normoxic or hypoxic (1% O2) conditions. After that, cells were harvested followed by the analysis of luciferase activity in a luminometer.
A HIF-1-dependent luciferase reporter gene was transfected into 293T cells. The next morning, cells were pretreated for 1 h with the indicated concentrations of compounds, followed by induction of hypoxia (hypoxia chamber) for 8 h. Subsequently cells were harvested and lyzed. Luciferase activity in cell extracts was measured in a luminometer (Duo Lumat LB 9507, Berthold) by injecting 20 microliter of assay buffer to 20 microliter of extract. Light emission was measured for 10 s, relative light units are given.
After transfection of 293T cells with a HIF-1-dependent luciferase reporter gene, cells were further incubated under normoxic or hypoxic (8 h, 1% O2) conditions as shown in FIG. 4. Effectively blocking concentrations of the IMDs (250 nM each) were added either 1 hour prior to hypoxia or 2 and 4 hours after induction of hypoxia.

[4] = system: HIF-1α mRNA; experiment: Hif-1α mRNA expression by real-time PCR; type: cell-based; conditions: human cells, 250 nM for 3 h, normoxic or hypoxic (45 minutes, 1% O2)
Description: In order to investigate whether the compounds of the invention do exert their HIF-1-1 suppressive action via inhibition of HIF-1-1 transcription the compounds were tested for their effects on HIF-1α mRNA production. In all experiments, human cells were exposed to efficiently blocking concentrations (250 nM) of the test compounds for 3 h. Then cells were further cultivated under normoxic or hypoxic conditions (45 minutes, 1% O2) respectively. Afterwards cell samples were harvested and RNA was extracted. cDNA was synthesized using specific primers and the PE Applied Biosystems Reverse Transcription Reagents. Real-time PCR was performed by using the SYBR Green I detection chemistry (Applied Biosystems) and an ABI Prism 7300 system. The expression of Hif-1α was quantified and results were normalized to Hprt1 and β-Actin (“housekeeping-gene”) expression. The relative abundance of the different genes was calculated by the comparative CT method. HIF-1α transcription of normoxic control cells was arbitrarily set to 1. […] Therefore an effect of IMD-compounds on HIF-1-dependent gene expression seems not to be mediated on HIF-1α transcription (FIG. 5).

[5] = system: HIF-1α protein; experiment: Hypoxia induced HIF-1α protein accumulation in 293T cells (immunoblotting); type: cell-based, human; conditions: 250 nM, 1 h preincubation, hypoxia 4 h, 1% O2
Description: Effects of IMD-026259, IMD-026260 and IMD-019064 on the stabilisation/accumulation of HIF-1α protein were investigated. 293T cells were preincubated with the indicated concentrations of all three compounds. After 1 h of pre-incubation, 293T cells were pre-incubated with the indicated concentrations of compounds and then further incubated under normoxic or hypoxic (4 h, 1% O2) conditions respectively. After lysis of cells in 1×SDS sample buffer and sonication, the samples were analyzed for HIF-1α abundance by immunoblotting.

[6] = system: endothelial cells; experiment: Incorporation of radiolabeled amino acids into unstimulated and IL-1b-stimulated endothelial cells; type: cell-based
Description: Compounds of the formula (I) have been reported in the literature to be un-specific inhibitors of protein synthesis. Thus, the question whether IMD-019064 (a rocaglaol derivative) is a direct inhibitor of protein synthesis has been addressed at different levels. Cellular assays (incorporation of radiolabeled amino acids into unstimulated and IL-1b-stimulated endothelial cells) were performed in order to investigate if inhibition of activated signaling cascades (e.g. IL-1 signalling pathway) may contribute to inhibitory activity of IMD-019064.

[7] = system: HUVEC; experiment: Spheroid-based angiogenesis assay, Deferoxamine (hypoxia) induced HUVEC sprouting; type: cell-based, human
Description: (§1) Prior application the stock solution [100 mM] of IMD-019064 was diluted 1:10 in DMSO and serially diluted in half logarithmic steps covering the concentration range from 10 mM to 1 μM using 100% DMSO. The final assay concentration ranged from 100 μM to 10 nM with a final DMSO concentration in the assay of 1%. The experiments were pursued in modification of the originally published protocol (Korff and Augustin: J Cell Sci 112: 3249-58, 1999). In brief, spheroids were prepared as described by Korff and Augustin: J Cell Biol 143: 1341-52, 1998) by pipetting 500 endothelial cells (EC) in a hanging drop on plastic dishes to allow overnight spheroid aggregation. 50 EC spheroids were then embedded in 0.9 ml of a 3D collagen matrix and pipetted into individual wells of a 24 well plate to allow polymerization.
(§2) Plates were incubated at 37° C. for 24 hours and fixed by adding 4% paraformaldehyde. The cumulative sprout length of 10 randomly selected spheroids per data point was analyzed and the relative inhibition by the test compound determined. Fitting of IC50 curves and calculation of IC50 values was performed with GraphPad Prism 5.01. Sprouting intensity of EC and fibroblast spheroids was quantitated by an image analysis system using an inverted microscope and the digital imaging software Analysis 3.2 (Soft imaging system, Munster, Germany). In parallel NHDF (fibroblast) spheroids were embedded in a 3D collagen gel and treated for 24 h with different concentrations of IMD-019064. The cumulative sprout length of 10 randomly selected spheroids per data point was analyzed according to the procedure used for the HUVEC experiment.
The same assays were performed with IMD-026260; IMD-026259; Sutent® (Sunitinib) and Sorafenib (Nexavar®) (see Table 3 for final compound concentrations).

[8] = system: NHDF (fibroblast); experiment: NHDF (fibroblast) spheroid sprouting/scattering in 3D collagen gel; type: cell-based; conditions: Homo sapiens, 24 h, read-out: IC50, NHDF fibroblast spheroid sprouting/scattering
Description: as §1, with “50 EC spheroids were then embedded in 0.9 ml of a 3D collagen matrix and pipetted into individual wells of a 24 well plate to allow polymerization.” left out
as §2, with “Fitting of IC50 curves and calculation of IC50 values was performed with GraphPad Prism 5.01.” left out, “In parallel NHDF (fibroblast) spheroids were embedded in a 3D collagen gel and treated for 24 h with different concentrations of IMD-019064.” left out, “experiment. […]” for “experiment.”

[9] = system: HUVEC; experiment: Spheroid-based angiogenesis assay, VEGF-A induced HUVEC sprouting; type: cell-based, human; conditions: after hypoxic or VEGF induction, summary statement
Description: As described in Example 4 HUVEC spheroids were generated, cultivated and embedded in a 3D collagen gel and stimulated with Vascular Endothelial Growth Factor alpha [VEGF-A; 25 ng/ml] instead of deferoxamine. Cell spheroids were treated for 24 h with different concentrations of IMD-026259; IMD-026260; Sutent® (Sunitinib) and Sorafenib (Nexavar®) (in Molar [M], as indicated in Table 4; see also FIG. 14A).
The cumulative sprout length of 10 randomly selected spheroids per data point was analyzed and the relative inhibition by the test compound determined. Fitting of IC50 curves and calculation of IC50 values was performed with GraphPad Prism® 5.01 (trademarked by GraphPad Software Inc.). […] Results from the examples described above are summarized in FIG. 14b IC50 values are given in nM for in vitro angiogenesis (HUVEC sprouting) studies after hypoxic or VEGF induction.

[10] = system: PDK1 (pyruvate dehydrogenase kinase1); experiment: HIF-1 target gene PDK1 expression in 293T cells by real-time PCR; type: cell-based; conditions: Homo sapiens, HEK-293T, 1 h pretreatment, 8 h hypoxia, read-out: IC50, suppression of endogenous PDK1 gene expression
Description: Human 293T cells were cultivated either under normoxic conditions or under hypoxic conditions (1% oxygen) for 4 and 8 hs respectively. Cells were harvested, followed by the isolation of RNA and the generation of cDNAs from Oligo (dT)20 primers using a Reverse Transcriptase kit. Then gene expression was measured by real-time PCR for the following two selected HIF-1α target genes: LDH-A (lactate dehydrogenase isoform A), and PDK1 (pyruvate dehydrogenase kinase1). Real-time PCR was performed with cDNA using specific primers and the SYBR Green I detection chemistry system (Applied Biosystems), utilizing an ABI Prism 7300 system. Actin was also measured as an internal control. The relative abundance of the different genes was calculated by the comparative CT method. In order to facilitate comparison, gene expression under normoxic conditions was arbitrarily set to 1 for each of the three genes. Two independent experiments confirmed PDK1 as the gene which was induced most prominently compared to LDH.
To investigate the capability of the compounds to inhibit PDK1, 293T cells were pretreated for 1 h with 3 different concentrations of the respective inhibitors (IMD-019064; IMD-026259; and IMD-026260). Subsequently, cells were incubated under normoxic/hypoxic conditions for further 8 h and the expression of PDK1 was quantified by real-time PCR as described above.

SMILES | time-dependency of inhibition of HIF-1-dependent luciferase expression [3] | effect on Hif-1α mRNA production [4] | effect on in vitro protein translation [1] | anti-IKKy/NEMO signal (cellular protein translation) [2] | inhibition of angiogenic sprouting in vitro (HUVEC sprouting) [9] | other results
C[C@@H]1C[C@@H]([C@H](O)CC2CC(=O)NC(=O)C2)C(=O)[C@@H](C)C1 [cycloheximide, reference compound] | – | – | – | – | – | effect on in vitro protein translation (positive control) ([1]; cycloheximide 10 μM / 10 μg/ml): potently suppressed formation of newly synthesized proteins; inhibition of cellular protein translation (positive control) ([2]; cycloheximide 10 μg/ml): powerful inhibition of protein translation
COc1ccc(C23Oc4cc(OC)cc(OC)c4C2(O)C(O)CC3c2cccc(F)c2)cc1 (centres unmarked) [IMD-019064, (1,3,3a,8b)-3-(3-fluorophenyl)-6,8-dimethoxy-3a-(4-methoxyphenyl)-2,3,3a,8b-tetrahydro-1H-benzo[d]cyclopenta[b]furan-1,8b-diol] | able to inhibit HIF-1-dependent luciferase expression even when added 4 hours after hypoxic induction | did not show any effects | No significant effect | did not result in reduced anti-IKKy/NEMO signals | potent inhibitors of angiogenic sprouting in vitro | block of HIF-1α protein accumulation [5]: almost completely block; shift of the dose-response curve to higher concentrations, un-stimulated compared to IL-1 stimulated cells, inhibition of amino acid incorporation [6]: 20 factor; IC50 ([7]; Homo sapiens, HUVEC, 24 h, read-out: IC50, hypoxia induced EC (HUVEC) sprouting): 30 nM; difference in HUVEC and fibroblast sensitivity ([7]; NHDF IC50 versus Deferoxamine-induced HUVEC IC50): factor six; IC50 [8]: 180 nM
CNC(=O)c1cc(Oc2ccc(NC(=O)Nc3ccc(Cl)c(C(F)(F)F)c3)cc2)ccn1 [Nexavar, Sorafenib, reference compound] | – | – | – | – | – | activity on HUVEC sprouting ([7]; HUVECs induced by Deferoxamine (hypoxia)): did not show any activity at all
OC1CC(c2ccccc2)C2(c3ccc(Cl)cc3)Oc3cc(OCCN4CCCC4)ccc3C12O (centres unmarked) [IMD-026259, (1,3a,8b)-3a-(4-chlorophenyl)-3-phenyl-6-(2-(pyrrolidin-1-yl)ethoxy)-2,3,3a,8b-tetrahydro-1H-benzo[d]cyclopenta[b]furan-1,8b-diol] | able to inhibit HIF-1-dependent luciferase expression even when added 4 hours after hypoxic induction | did not show any effects | No significant effect | did not result in reduced anti-IKKy/NEMO signals | potent inhibitors of angiogenic sprouting in vitro | IC50 ([3]; Homo sapiens, HEK-293T, 1 h pretreatment, hypoxia 8 h, read-out: IC50, HIF-1 luciferase inhibitory activity): 19 nM; IC50 [10]: 9 nM
